Like-named read-outs stand apart in the source and are kept apart here.
Tests used:
[1] = tested on: wild-type human ovarian cancer cells (A2780/WT); experiment: Sulforhodamine B (SRB) cytotoxicity assay, A2780/WT; type: cell-based; conditions: for IC50: Homo sapiens, A2780/WT, 2 hour drug treatments; for IC50 values in words (inhibition of cell growth): wild-type (A2780/WT) ovarian cancer cells
Text: (§1) The sulforhodamine B (SRB) assay was used to assess cytotoxicity and absorbance at 570 nm (A570) in order to calculate the percentage of cell control (or percent cell survival) for wild-type human ovarian cancer cells (A2780/WT) and doxorubicin-resistant human ovarian cancer cells (A2780/DX5) treated with BNP1350, BNP10120 (a di-deuterated analog of BNP1350) and BNP10121 (a tetra-deuterated analog of BNP1350).
(§2) Roswell Park Memorial Institute (RPMI 1640) medium, fetal bovine serum (FBS), and L-glutamine were purchased from Gibco BRL. Drugs were dissolved in sterile dimethylsulfoxide (DMSO), from American Type Culture Collection (ATCC) for stock solutions (2.5 to 5.0 mM). Subsequent dilutions were made using cell culture medium (prior to adding the drug to cells). SRB was purchased from Sigma and dissolved in 1.0 percent acetic acid. Trichloroacetic acid was purchased from VWR International. BNP1350, BNP10120 (a di-deuterated analog of BNP1350) and BNP10121 (a tetra-deuterated analog of BNP1350) were synthesized and purified by BioNumerik Pharmaceuticals, Inc.
(§3) Cells were manipulated in a Class IIA/B3 Biological Safety Cabinet (Forma Scientific) and maintained at 37° C. in a humidified atmosphere containing 5% CO2 in a water-jacketed cell culture incubator (Forma Scientific). Cells were counted using a Coulter-Z1 counter (Beckman-Coulter). Following drug treatment, plates were washed using a Biomek 2000 station (Beckman) and, following exposure to SRB dye, plates were washed using an automated plate washer (Model EL404, Bio-Tek Instruments). Percentage of control was correlated to A570 values and determined using a Model EL800 plate reader (Bio-Tek Instruments).
(§4) Wild-type human ovarian cancer cells (A2780/WT) and doxorubicin-resistant human ovarian cancer cells (A2780/DX5) were cultured in RPMI 1640 medium supplemented with 10% fetal bovine serum and 2 mM L-glutamine, and grown in a 37° C. incubator with 5% CO2. Population doubling times for the two cell lines used in this study encompassed a total of five cell doublings corresponding to approximately 5 days for A2780/WT and A2780/DX5 cells. Both cell lines were maintained as monolayered cultures in T-25 or T-75 flasks and then seeded to microtiter plate wells for experiments described herein.
(§5) In brief, cells were seeded (500 cells/well in 100 μL total volume) into 96-well microtiter plates and allowed to attach for 24 hours prior to treatment with BNP1350, BNP10120 or BNP10121 for 2 hours. The aforementioned compounds were dissolved in DMSO for use in cytotoxicity experiments where inhibition of cell growth was measured using the SRB assay.
(§6) Following this 2 hour drug treatment, the BNP1350, BNP10120 and BNP10121 were removed, cells were washed with drug-free media (200 μL) and then drug-free media (200 μL) was added to the cells and cells were allowed to continue growing at 37° C. with 5% CO2 before the SRB assay was performed (total experiment time from time of seeding was 5 days, during which time a total of 5 cell doublings had occurred).
(§7) Prior to SRB assays, cell viability was monitored by evaluation of microtiter plate wells. Dead cells detach and float while living cells remain attached to the bottom of the cell well.
(§8) The sulforhodamine B (SRB) cytotoxicity assay (see, Skehan P, et al., New colorimetric cytotoxicity assay for anticancer-drug screening. J. Natl. Cancer Inst. 82:1107-1112 (1990)) was used to determine the cytotoxic effects of BNP1350, BNP10120 or BNP10121 on cell growth in vitro. Briefly, after the medium was aspirated from individual plate wells, trichloroacetic acid (100 μL of 10.0% solution) was added to each well, and the plates were incubated at 4° C. for at least 1 hour. The plates were washed five-times with water using an automated microplate washer (Model EL 404, Bio-Tek Instruments), SRB solution (100 μL of 0.4 grams SRB dissolved in 100 mL 1.0 percent acetic acid) was added, and plates remained at room temperature for 15 minutes. […]

[2] = tested on: doxorubicin-resistant human ovarian cancer cells (A2780/DX5); experiment: Sulforhodamine B (SRB) cytotoxicity assay, A2780/DX5; type: cell-based; conditions: for IC50: Homo sapiens, A2780/DX5, 2 hour drug treatments; for IC50 values in words (inhibition of cell growth): doxorubicin resistant (A2780/DX5) ovarian cancer cells
Text: as §1, §2, §3, §4, §5, §6, §7, §8

[3] = tested on: PHA-stimulated lymphocytes and normal glial cells; conditions: 90% D2O; cited from earlier work
[4] = tested on: malignant melanoma and carcinoma cells (colon carcinoma, glioblastoma, and small lung cell cancer cells); conditions: cited from earlier work
[5] = clinical trial; cited from earlier work
[6] = average of Test 1 and Test 2, read-out: IC50 Average

Structure (SMILES): CC[C@@]1(O)C(=O)OCc2c1cc1n(c2=O)Cc2c-1nc1ccccc1c2CC[Si](C)(C)C [BNP1350, (4S)-4-Ethyl-4-hydroxy-11-[2-(trimethylsilyl)ethyl]-1H-pyrano[3′,4′:6,7]indolizino[1,2-b]quinoline-3,14(4H,12H)-dione, reference compound]
- IC50 [1, 6]: 1.9 nM
- IC50 ([1]; read-out: IC50 Test 1): 1.9 nM
- IC50 ([1]; read-out: IC50 Test 2): 1.8 nM
- IC50 values in words (inhibition of cell growth) [1]: nanomolar
- IC50 [2, 6]: 7.3 nM
- IC50 ([2]; read-out: IC50 Test 1): 7.7 nM
- IC50 ([2]; read-out: IC50 Test 2): 6.9 nM
- IC50 values in words (inhibition of cell growth) [2]: nanomolar

Structure (SMILES): [2H]O[2H] [D2O]
- cells killed [3]: 5%
- cells killed ([4]; 90% D2O, malignant melanoma and carcinoma cells): 70%
- viable fraction of malignant cells ([4]; 9 days of treatment with 90% D2O): about 0.1%

Structure (SMILES): [2H]C1([2H])c2c(nc3ccccc3c2CC[Si](C)(C)C)-c2cc3c(c(=O)n21)COC(=O)[C@]3(O)CC [BNP10120, (4S)-12,12-Dideutero-4-ethyl-4-hydroxy-11-[2-(trimethylsilyl)ethyl]-1H-pyrano[3′,4′:6,7]indolizino[1,2-b]quinoline-3,14(4H,12H)-dione]
- IC50 [1, 6]: 2.6 nM
- IC50 ([1]; read-out: IC50 Test 1): 3.5 nM
- IC50 ([1]; read-out: IC50 Test 2): 1.6 nM
- IC50 values in words (inhibition of cell growth) [1]: nanomolar
- IC50 [2, 6]: 8.5 nM
- IC50 ([2]; read-out: IC50 Test 1): 9.9 nM
- IC50 ([2]; read-out: IC50 Test 2): 7.1 nM
- IC50 values in words (inhibition of cell growth) [2]: nanomolar

Structure (SMILES): [2H]C([2H])(c1c2c(nc3ccccc13)-c1cc3c(c(=O)n1C2)COC(=O)[C@]3(O)CC)C([2H])([2H])[Si](C)(C)C [BNP10121, (S)-4-Ethyl-4-hydroxy-11-[1,1,2,2-tetradeutero-2-(trimethylsilyl)ethyl]-1H-pyrano[3′,4′:6,7]indolizino[1,2-b]quinoline-3,14(4H,12H)-dione]
- IC50 [1, 6]: 6.1 nM
- IC50 ([1]; read-out: IC50 Test 1): 6.1 nM
- IC50 ([1]; read-out: IC50 Test 2): 6 nM
- IC50 values in words (inhibition of cell growth) [1]: nanomolar
- IC50 [2, 6]: 11.7 nM
- IC50 ([2]; read-out: IC50 Test 1): 12 nM
- IC50 ([2]; read-out: IC50 Test 2): 11.3 nM
- IC50 values in words (inhibition of cell growth) [2]: nanomolar

Structure (SMILES): [2H]C([2H])([2H])Oc1ccc(C(CN(C([2H])([2H])[2H])C([2H])([2H])[2H])C2(O)CCCCC2)cc1 (centres unmarked) [SD-254]
- rate of metabolism relative to Effexor [5]: half as fast
- time after which pharmacologically-effective levels of the drug were maintained [5]: 24 hours

From US8569265B2, “Deuterated analogs of (4S)-4-ethyl-4-hydroxy-11-[2- (trimethylsilyl)ethyl]-1H-pyrano[3′, 4′:6,7] indolizino [1,2-b]quinoline-3,14(4H, 12H)-dione and methods of use thereof” (BioNumerik Pharmaceuticals, Inc., priority 2011, dated 2013)
